Measurements from patent US20240043382A1, “MODIFIED INDOLE ALKALOIDS FOR THERAPEUTIC USES” (priority 2020, published 2024).

What was measured:
[1] = target: T1, human 5-HT2A (h5-HT2A) receptor (Homo sapiens, UniProt P28223); assay: 5-HT2A receptor functional assay (Gq-mediated calcium flux) of saliva-hydrolyzed modified indole alkaloids; assay type: cell-based; conditions: 5HT2A agonist activity, compounds hydrolyzed by treatment with human saliva; for EC50: Flp-In T-REx 293 cells expressing h5-HT2A, peak calcium flux; for Emax % 5-HT (± SEM): normalized to 5-HT (100%)
T1 construct: host or cells: Flp-In T-REx 293 cells
T1 sequence (P28223 whole entry): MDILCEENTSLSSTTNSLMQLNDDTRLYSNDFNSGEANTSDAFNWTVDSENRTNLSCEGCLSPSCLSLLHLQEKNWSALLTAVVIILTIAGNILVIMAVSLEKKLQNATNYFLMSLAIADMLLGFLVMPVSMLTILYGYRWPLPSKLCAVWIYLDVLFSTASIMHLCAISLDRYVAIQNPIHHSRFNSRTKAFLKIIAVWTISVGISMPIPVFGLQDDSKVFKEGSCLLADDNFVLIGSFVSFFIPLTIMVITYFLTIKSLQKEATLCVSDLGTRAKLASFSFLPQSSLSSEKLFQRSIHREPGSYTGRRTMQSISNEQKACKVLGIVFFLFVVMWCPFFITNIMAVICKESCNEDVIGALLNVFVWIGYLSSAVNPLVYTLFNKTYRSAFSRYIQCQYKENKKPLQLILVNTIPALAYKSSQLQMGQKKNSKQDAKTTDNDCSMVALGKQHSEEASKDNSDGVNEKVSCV

[2] = target: T2, human 5-HT2C (h5-HT2C) receptor (Homo sapiens, UniProt P28335); assay: 5-HT2C receptor functional assay (Gq-mediated calcium flux) of saliva-hydrolyzed modified indole alkaloids; assay type: cell-based; conditions: 5HT2C agonist activity, compounds hydrolyzed by treatment with human saliva; for EC50: Flp-In T-REx 293 cells expressing h5-HT2C, peak calcium flux; for Emax % 5-HT (± SEM): normalized to 5-HT (100%)
T2 construct: host or cells: Flp-In T-REx 293 cells
T2 sequence (P28335 33-458): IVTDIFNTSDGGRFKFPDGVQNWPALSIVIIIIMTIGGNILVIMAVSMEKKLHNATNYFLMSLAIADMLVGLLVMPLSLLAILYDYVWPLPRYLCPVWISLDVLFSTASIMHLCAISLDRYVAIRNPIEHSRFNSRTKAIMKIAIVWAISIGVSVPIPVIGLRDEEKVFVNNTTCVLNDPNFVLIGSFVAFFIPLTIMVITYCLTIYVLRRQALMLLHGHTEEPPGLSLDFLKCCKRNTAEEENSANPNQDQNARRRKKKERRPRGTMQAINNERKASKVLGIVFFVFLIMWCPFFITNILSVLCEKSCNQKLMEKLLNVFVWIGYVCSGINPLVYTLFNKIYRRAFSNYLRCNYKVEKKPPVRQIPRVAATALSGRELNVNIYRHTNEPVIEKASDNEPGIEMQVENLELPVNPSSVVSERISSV

[3] = Digestion of modified indole alkaloids with human salivary samples (LC-MS); assay type: in vitro ADME; conditions: 100 μM compound, 50 μL human saliva, 2 hours at 37° C., pH 7.5
Procedure: Human saliva samples were collected 25 minutes before food intake after 8 hours fasting from an adult subject with no clinical symptoms. For saliva collection, saliva samples were obtained by passive drool into sterile 10 mL centrifuge tubes over a 5-min period. Immediately after collection, saliva samples were centrifuged (500 g for 10 min at 4° C.) and the supernatant was recovered and used immediately or stored at −80° C. until further use.
Eleven 100-μL reaction mixtures were prepared, consisting of: • 50 mM HEPES pH 7.5 • 50 mM NaCl • 100 μM modified indole alkaloid product (from Reactions 3, 24, 39-47, respectively) • 50 μL, of human saliva sample • 2 mM calcium chloride • 5 mM magnesium chloride
The reaction mixtures were digested for 2 hours at 37° C., and heated to 80° C. for 5 minutes to terminate the reactions. The reaction mixtures were then centrifuged at 30,000 ref and the supernatant transferred to a fresh sample tube.
One microliter of the sample was injected onto a ZORBAX StableBond-C18, 1.8 um, 2.1×50 mm column at 20° C. using a 0.3 mL/min flow rate and major ion species were detected with a 6520 Accurate-Mass Q-TOF LC-MS (Agilent) in positive mode. The mobile phase consisted of a mixture of 0.1% formic acid in acetonitrile (v/v) and 0.1% formic acid in water (v/v) was eluted under the following gradient conditions (shown in relation to acetonitrile content): 0 min-10%, 6 min-100%, 7 min-10%, 14 min-10%. The mobile phase was delivered at a flow rate of 0.3 mL/min and the total analytical run time was 14 min.

[4] = target: T1, human 5-HT2A (h5-HT2A) receptor; assay: 5-HT2A receptor functional assay (calcium flux) of modified indole alkaloids digested with calf intestinal alkaline phosphatase; assay type: cell-based; conditions: after 2 hours with 100 units calf intestinal alkaline phosphatase, pH 7.9, 25° C.; compared to 5-HT
Procedure: 1 mM of 4-3-(2-(dipropylamino)ethyl)-1H-indol-4-yl dihydrogen phosphate (Compound A) was incubated with 100 units of calf intestinal alkaline phosphatase for 2 hours in buffer containing 50 mM Potassium acetate, 20 mM Tris-acetate, 10 mM Magnesium acetate, and 100 μg/ml BSA at pH 7.9 and 25° C. 1 mM of 4-3-(2-(diisopropylamino)ethyl)-1H-indol-4-yl dihydrogen phosphate (Compound B) was incubated with 100 units of calf intestinal alkaline phosphatase for 2 hours in buffer containing 50 mM Potassium acetate, 20 mM Tris-acetate, 10 mM Magnesium acetate, and 100 μg/ml BSA at pH 7.9 and 25° C. The resulting solutions containing dephosphorylated products were used in a 5-HT2A receptor functional assay. […]
Before the experiment, plates were allowed to equilibrate to room temperature, and calcium flux was measured using a […] cellular screening system (Molecular Devices, Sunnyvale, CA). Plates were read for fluorescence initially for 10 s (1 read per second) to establish a baseline and then stimulated with drug dilutions or buffer and read for an additional 120 s. Peak fluorescence in each well was normalized to the maximum fold increase over baseline. […] Data were analyzed using the sigmoidal dose-response function of Prism 5.0 or 8.0 (GraphPad Software, San Diego, CA). Relative activity (RA) was expressed as the logarithm of the ratio of Emax over EC50 parameter estimates. […]

Row | SMILES | EC50 [1] [µM] | Emax % 5-HT (± SEM) [1] [% 5-HT] | EC50 [2] [µM] | Emax % 5-HT (± SEM) [2] [% 5-HT] | conversion by human saliva to 4-hydroxy-N,N-diisopropyltryptamine (LC-MS) [3] | functional agonism of 5HT2A receptor, peak calcium flux response (FIG. 5) [4] [HT2A agonism]
1 | CC(C)N(CCc1c[nH]c2cccc(O[C@H]3O[C@H](CO)[C@@H](O)[C@H](O)[C@H]3O)c12)C(C)C (stereo in doubt) [Hydrolyzed Compound A-7, 2-((3-(2-(diisopropylamino)ethyl)-1H-indol-4-yl)oxy)-6-(hydroxymethyl)tetrahydro-2H-pyran-3,4,5-triol] | 0.00681 | 103 ± 1.2 | 1.55 | 94.4 ± 1.2 |  | 
2 | CCN(C)CCc1c[nH]c2cccc(O[C@H]3O[C@H](CO)[C@@H](O)[C@H](O)[C@H]3O)c12 (stereo in doubt) [Hydrolyzed Compound A-1, 2-((3-(2-(ethyl(methyl)amino)ethyl)-1H-indol-4-yl)oxy)-6-(hydroxymethyl)tetrahydro-2H-pyran-3,4,5-triol] | 0.00401 | 96.7 ± 1.1 | 0.0301 | 89.9 ± 2.1 |  | 
3 | CCCN(CCC)CCc1c[nH]c2cccc(O[C@H]3O[C@H](CO)[C@@H](O)[C@H](O)[C@H]3O)c12 (stereo in doubt) [Hydrolyzed Compound A-6, 2-((3-(2-(dipropylamino)ethyl)-1H-indol-4-yl)oxy)-6-(hydroxymethyl)tetrahydro-2H-pyran-3,4,5-triol] | 0.00165 | 103.2 ± 1.0 | 0.214 | 84.2 ± 1.0 |  | 
4 | CCCN(C)CCc1c[nH]c2cccc(O[C@H]3O[C@H](CO)[C@@H](O)[C@H](O)[C@H]3O)c12 (stereo in doubt) [Hydrolyzed Compound A-2, 2-(hydroxymethyl)-6-((3-(2-(methyl(propyl)amino)ethyl)-1H-indol-4-yl)oxy)tetrahydro-2H-pyran-3,4,5-triol] | 0.00383 | 98.0 ± 1.1 | 0.0478 | 90.7 ± 1.5 |  | 
5 | C=CCN(C)CCc1c[nH]c2cccc(O[C@H]3O[C@H](CO)[C@@H](O)[C@H](O)[C@H]3O)c12 (stereo in doubt) [Hydrolyzed Compound A-8, 2-((3-(2-(allyl(methyl)amino)ethyl)-1H-indol-4-yl)oxy)-6-(hydroxymethyl)tetrahydro-2H-pyran-3,4,5-triol] | 0.00366 | 102 ± 1.0 | 0.0492 | 81.5 ± 2.4 |  | 
6 | CC(C)N(CCc1c[nH]c2cccc(OC(=O)CC(=O)O)c12)C(C)C [Compound D, 3-((3-(2-(diisopropylamino)ethyl)-1H-indol-4-yl)oxy)-3-oxopropanoic acid] |  |  |  |  | completely hydrolyzed | 
7 | CN(CCc1c[nH]c2cccc(O[C@H]3O[C@H](CO)[C@@H](O)[C@H](O)[C@H]3O)c12)C1CC1 (stereo in doubt) [Hydrolyzed Compound A-9, 2-((3-(2-(cyclopropyl(methyl)amino)ethyl)-1H-indol-4-yl)oxy)-6-(hydroxymethyl)tetrahydro-2H-pyran-3,4,5-triol] | 0.0051 | 99.4 ± 2.0 | 0.149 | 79.1 ± 6.1 |  | 
8 | CC(C)N(CCc1c[nH]c2cccc(OP(=O)(O)O)c12)C(C)C [Compound B, 4-3-(2-(diisopropylamino)ethyl)-1H-indol-4-yl dihydrogen phosphate] |  |  |  |  |  | 5
9 | CCN(CC)CCc1c[nH]c2cccc(O[C@H]3O[C@H](CO)[C@@H](O)[C@H](O)[C@H]3O)c12 (stereo in doubt) [Hydrolyzed Compound A-4, 2-((3-(2-(diethylamino)ethyl)-1H-indol-4-yl)oxy)-6-(hydroxymethyl)tetrahydro-2H-pyran-3,4,5-triol] | 0.00648 | 100.1 ± 1.1 | 0.258 | 80.1 ± 1.9 |  | 
10 | CC(=O)CC(=O)Oc1cccc2[nH]cc(CCN(C(C)C)C(C)C)c12 [Compound E, 3-(2-(diisopropylamino)ethyl)-1H-indol-4-yl 3-oxobutanoate] |  |  |  |  | completely hydrolyzed | 
11 | CCCN(CCC)CCc1c[nH]c2cccc(OP(=O)(O)O)c12 [Compound A, 4-3-(2-(dipropylamino)ethyl)-1H-indol-4-yl dihydrogen phosphate] |  |  |  |  |  | 5
12 | CCCN(CC)CCc1c[nH]c2cccc(O[C@H]3O[C@H](CO)[C@@H](O)[C@H](O)[C@H]3O)c12 [Hydrolyzed Compound A-5, 2-((3-(2-(ethyl(propyl)amino)ethyl)-1H1-indol-4-yl)oxy)-6-(hydroxymethyl)tetrahydro-2H-pyran-3,4,5-triol] | 0.00316 | 99.4 ± 1.2 | 0.117 | 89.4 ± 2.6 |  | 
13 | CC(C)N(CCc1c[nH]c2cccc(O[C@H]3O[C@H](CO)[C@@H](O)[C@H](O)[C@H]3O)c12)C(C)C [Hydrolyzed Compound A-7, 2-((3-(2-(diisopropylamino)ethyl)-1H-indol-4-yl)oxy)-6-(hydroxymethyl)tetrahydro-2H-pyran-3,4,5-triol] |  |  |  |  | completely deglycosylated | 
